According to patent US20030055103A1, “Utilization of achyrocline satureoides ("Marcela") extracts and liposomal preparations of natural and semi-synthetic flavonoids for the prevention and treatment of the consequences of stroke and neurodegenerative diseases” (priority 2001, published 2003):
“Also recorded” adds a separate entry of the source. Like-named read-outs stand apart in the source and are kept apart here. Peptide text beside a SMILES is read from it.

Tests used:
PC12 cells = assay: PC12 cell survival after H2O2 oxidative insult (MTT reduction); type: cell-based; conditions: 200 μM H2O2 30 min, result in words
Method: PC12 cells (Greene and Tischler 1976, Shafer and Atchison 1991) were grown in RPMI supplemented with 10% heat-inactivated horse serum (HSI), 5% fetal bovine serum (FBS), penicillin and streptomycin on a collagen matrix. Typically, cells were sow (1:4 in a total volume of 10 ml complete medium) in 100×20 mm cell culture dishes and grown at 37° C. in at atmosphere of 5% CO2 for a week. Media was changed twice a week. Cultures were not used in more than 25 passages.
Cells were plated at a low density (100 cells/μl) in 200 μl of complete medium on 96-well cell culture plates on a poli-D-lysine matrix to do all the experiments except the comet assay. To do the latter, 100×20mm-cell culture dishes were adequate. All the experiments were started 24 hrs after the sow.
Cells were exposed to H2O2 200 μM during half an hour (medium was changed to stop the treatment) and all the evaluations were fulfilled 2 hrs later.
This assay measures the reduction of 3-(4,5-dimethyl-thiazol-2-yl)-2,5-diphenil tetrazolium bromide (MTT) (yellowish) to formazan (blue) by mitochondrial dehydrogenases of the living cells. The fresh complete medium added after the treatment was supplemented with MTT (0.5 mg/ml ). Following an incubation period of 2 hrs, it was removed and half-its volume of dimethylsulfoxide (DMSO) was added to achieve solubilization. Absorption values were read immediately at 570-640 nm (Denizot and Lang 1986). […]

[1] = tested on: rats injected with 6-OHDA in the SN; assay: 6-OHDA lesion of the Substantia Nigra (experimental parkinsonism), striatal dopamine; type: in vivo, rat; conditions: given intraperitoneally before 6-OHDA, assessed eight days after, result in words
[2] = tested on: spontaneous lipoperoxidation of rat's brain membranes; assay: Spontaneous lipoperoxidation of rat brain membranes (malondialdehyde production); type: biochemical; conditions: for antioxidant potency / capacity: anti-lipoperoxidation assay (test not given)
male Sprague-Dawley rats = assay: Permanent focal MCA occlusion, TTC morphometry and histology; type: in vivo, rat; conditions: result in words
[3] = Quercetin concentration in rat blood after intraperitoneal administration; type: in vivo
Excerpt: FIG. 17. A graph of Quercetin concentration in rat blood at different periods after intraperitoneal administration.

[4] = Acute toxicity (species not given); conditions: intraperitoneal or oral, doses up to 300 mg/kg
[5] = inhibition of spontaneous lipoperoxidation, rat brain membranes, read-out: IC50

| Structure (SMILES) | protection / cell survival after H2O2 insult (PC12 cells) | neuroprotection: dopamine level in ipsilateral striatum [1] | IC50 [2, 5] [µM] | further results |
| --- | --- | --- | --- | --- |
| Cn1cnc(N)c2ncnc1-2 [3-MT, 3-methyladenine] | block H2O2-induced cell death | – | – | – |
| COc1cc2c(cc1O)C[C@H]1c3c(cc(O)c(OC)c3-2)CCN1C [Boldine] | only marcela extracts, quercetin or structurally similar flavonoids protected PC12 cells; also recorded: did not increased survival | did not revert in vivo the oxidative lesion; also recorded: did not show neuroprotection activity | 12.8 | antioxidant potency / capacity ([2]; result in words): highest antioxidant potency |
| O=C(O)/C=C/c1ccc(O)c(O)c1 [Caffeic acid] | – | – | 48.6 | – |
| Oc1cc(O)c2c(c1)OC(c1ccc(O)c(O)c1)C(O)C2 (stereo not drawn) [Catequin] | – | – | 28.3 | – |
| CC(=O)N[C@@H](CC(C)C)C(=O)N[C@@H](CCC(=O)O)C(=O)N[C@@H](Cc1c[nH]cn1)C(=O)N[C@H](C=O)CC(=O)O [LEHD, acetyl-L-leucyl-L-glutamyl-L-histidyl-L-aspart-1-al] (Ac-LEHD-aldehyde) | block H2O2-induced cell death | – | – | – |
| COc1ccc2[nH]cc(CCNC(C)=O)c2c1 [Melatonine] | did not increased survival | weaker in its neuroprotection | 1400 | – |
| CN1CCCC1c1cccnc1 (stereo not drawn) [Nicotine] | – | reverted dopamine levels in the ipsilateral striatum | – | antioxidant potency / capacity ([2]; result in words): negligible |
| O=c1c(O)c(-c2ccc(O)c(O)c2)oc2cc(O)cc(O)c12 [Quercetin] | protected PC12 cells; also recorded: protects PC12 cells against H2O2; also recorded: Neuroprotectan effect | did not show neuroprotection activity | 3.7 | ischemic lesion area (male Sprague-Dawley rats; liposomal quercetin 30 mg/kg i.p. 30 min after ischemia, TTC at 24 hrs): clearly decreased the lesion area; also recorded: marked and significant decrease of the ischemic area; also recorded: recovery of the ischemic areas is clear cut; number of neurons in Nissl stained slices (male Sprague-Dawley rats; striatum and cortex, 24 hrs after occlusion): higher than ischemic rats and non different from controls; neuroprotection: dopamine level in ipsilateral striatum ([1]; listed as quercetin): did not revert in vivo the oxidative lesion; also recorded: appear not to have neuroprotectant effects in vivo; time quercetin is detected in blood [3]: up to two; adverse effects in acute toxicity experiments [4]: did not show any adverse effects; malondialdehyde production during spontaneous lipoperoxidation ([2]; result in words): decreased malondialdehyde production; antioxidant potency / capacity ([2]; result in words): potent antioxidants; IC50 ([2]; spontaneous lipoperoxidation, marcela expressed in quercetin equivalents): 1.11 µg/mL |
| CC[C@H](C)[C@H](NC(=O)[C@H](CCC(=O)O)NC(=O)[C@@H](NC(C)=O)C(C)C)C(=O)N[C@H](C=O)CC(=O)O [VEID, acetyl-L-valyl-L-glutamyl-L-isoleucyl-L-aspart-1-al] (Ac-VEID-aldehyde) | block H2O2-induced cell death | – | – | – |
| O=c1c(O)c(-c2ccc(O)c(O)c2)oc2cc(O)ccc12 [fisetin] | did show neuroprotectant capacity | – | – | – |
| O=c1c(O)c(-c2cc(O)c(O)c(O)c2)oc2cc(O)cc(O)c12 [myricetin] | did show neuroprotectant capacity | – | – | – |
| Cc1c(C)c2c(c(C)c1O)CCC(C)(C(=O)O)O2 (stereo not drawn) [trolox] | only marcela extracts, quercetin or structurally similar flavonoids protected PC12 cells | – | – | – |
| Cc1c(C)c2c(c(C)c1O)CC[C@@](C)(CCC[C@H](C)CCC[C@H](C)CCCC(C)C)O2 [vitamin E, alpha-tocopherol] | only marcela extracts, quercetin or structurally similar flavonoids protected PC12 cells | – | – | protection / cell survival after H2O2 insult (PC12 cells; listed as alpha-tocopherol): did not increased survival |
